Tested on: 2F5 mAb
Experiment: SPR assay with liposome-anchored peptides
Assay type: binding
Settings: 10 seconds after the injection was stopped; peptide anchored to liposomes

Substance	binding response (background subtracted)
QQEKNEQELLELDKWASSWNYKRWIILGLNKIVRMYS-biotin	616.7 response unit
QQEKNEQELLELDKWASLWNYKRWIILGLNKIVRMYS-biotin [consensus 2F5 epitope]	494.6 response unit
